Results: US5705487A, “Antithrombotic agents” (priority 1995, dated 1998)
Where a name gives a salt, the structure may show the parent alone.

Legend:
Assay type in all cases: biochemical
[1] = test system: Human Plasma; test: Human plasma anticoagulation, activated partial thromboplastin time (APTT); conditions: concentration required to double the clotting time
In short: (§1)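 Values are concentrations estimated by linear extrapolation to double the clotting time in human plasma containing test compound across a wide range. Thrombin time was triggered with bovine thrombin at 10 NIH units/mL plus saline, and prothrombin time with Thromboplastin-C plus saline. For APTT, plasma sat with Actin reagent for 120 seconds before 0.02M CaCl2.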

[2] = target: T1, t-PA (Homo sapiens, UniProt P00750); test: Kass, t-PA chromogenic substrate assay; conditions: substrate H-D-Ile-Pro-Arg-p-nitroanilide
T1 construct: purchased American Diagnostica, Greenwich, Conn

[3] = test system: Human Plasma; test: Human plasma anticoagulation, prothrombin time (PT); conditions: concentration required to double the clotting time
In short: as §1

[4] = test system: Human Plasma; test: Human plasma anticoagulation, thrombin time (TT); conditions: concentration required to double the clotting time
In short: as §1

[5] = target: Human Thrombin (Homo sapiens, UniProt P00734); test: Inhibition of the amidase activity of thrombin (Kass); conditions: chromogenic substrate N-benzoyl-Phe-Val-Arg-p-nitroanilide; mean over range of concentrations
[6] = target: T2, factor Xa (Homo sapiens, UniProt P00742); test: Kass, factor Xa chromogenic substrate assay; conditions: substrate N-Benzoyl-Ile-Glu-Gly-Arg-p-nitroanilide
T2 construct: Human factors X, Xa, IXa, XIa, and XIIa are purchased; purchased Enzyme Research Laboratories, South Bend, Ind

[7] = target: T3, Bovine trypsin (Bos taurus, UniProt P00760); test: Kass, trypsin chromogenic substrate assay; conditions: substrate N-Benzoyl-Phe-Val-Arg-p-nitroanilide
T3 construct: Bovine trypsin is purchased from Worthington Biochemicals; purchased Worthington Biochemicals, Freehold, N.J
T3 sequence (P00760 24-246): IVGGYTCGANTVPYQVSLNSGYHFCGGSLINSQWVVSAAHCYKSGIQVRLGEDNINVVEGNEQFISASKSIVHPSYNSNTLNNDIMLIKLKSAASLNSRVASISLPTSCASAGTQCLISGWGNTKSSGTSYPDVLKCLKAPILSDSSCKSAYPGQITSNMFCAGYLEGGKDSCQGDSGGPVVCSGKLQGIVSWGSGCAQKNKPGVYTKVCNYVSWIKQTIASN
Protocol: (§2) By substantially following the procedures described above for human thrombin, and using other human blood coagulation system serine proteases and proteases of the fibrinolytic system with the appropriate chromogenic substrates, identified below, selectivity of the compounds of the present invention with respect to the coagulation factor serine proteases and with respect to the fibrinolytic system serine proteases are evaluated as well as their substantial lack of interference with serine proteases of the fibrinolytic system.
Chromogenic substrates: N-Benzoyl-Ile-Glu-Gly-Arg-p-nitroanilide (for factor Xa); N-Cbz-D-Arg-Gly-Arg-p-nitroanilide (for factor IXa assay as the factor Xa substrate); Pyroglutamyl-Pro-Arg-p-nitroanilide (for Factor XIa and for aPC); H-D-Pro-Phe-Arg-p-nitroanilide (for factor XIIa); and Pyroglutamyl-Gly-Arg-p-nitroanilide (for urokinase); are purchased from KabiVirum, Stockholm, Sweden, or from Midwest Biotech, Fishers, Ind. Bovine trypsin is purchased from Worthington Biochemicals, Freehold, N.J., and human plasma kallikrein from Kabi Vitrum, Stockholm, Sweden. […] N-Benzoyl-Phe-Val-Arg-p-nitroanilide, the substrate for human thrombin and for trypsin, is synthesized according to procedures described above for the compounds of the present invention, using known methods of peptide coupling from commercially available reactants or purchased from Midwest Biotech, Fishers, Ind.

[8] = target: T4, Human plasmin (Homo sapiens, UniProt P00747); test: Kass, plasmin chromogenic substrate assay; conditions: substrate H-D-Val-Leu-Lys-p-nitroanilide
T4 construct: Human plasmin is purchased from Boehringer Mannheim; purchased Boehringer Mannheim, Indianapolis, Ind
T4 sequence (P00747 581-810 limits assumed): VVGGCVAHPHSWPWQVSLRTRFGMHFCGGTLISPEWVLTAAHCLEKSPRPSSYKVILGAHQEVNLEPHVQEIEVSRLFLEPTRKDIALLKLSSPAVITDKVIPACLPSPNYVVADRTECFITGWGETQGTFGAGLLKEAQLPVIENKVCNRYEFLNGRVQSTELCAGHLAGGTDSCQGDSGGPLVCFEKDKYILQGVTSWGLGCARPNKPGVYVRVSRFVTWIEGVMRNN
T4 sequence (P00747 97-580 partner limits assumed): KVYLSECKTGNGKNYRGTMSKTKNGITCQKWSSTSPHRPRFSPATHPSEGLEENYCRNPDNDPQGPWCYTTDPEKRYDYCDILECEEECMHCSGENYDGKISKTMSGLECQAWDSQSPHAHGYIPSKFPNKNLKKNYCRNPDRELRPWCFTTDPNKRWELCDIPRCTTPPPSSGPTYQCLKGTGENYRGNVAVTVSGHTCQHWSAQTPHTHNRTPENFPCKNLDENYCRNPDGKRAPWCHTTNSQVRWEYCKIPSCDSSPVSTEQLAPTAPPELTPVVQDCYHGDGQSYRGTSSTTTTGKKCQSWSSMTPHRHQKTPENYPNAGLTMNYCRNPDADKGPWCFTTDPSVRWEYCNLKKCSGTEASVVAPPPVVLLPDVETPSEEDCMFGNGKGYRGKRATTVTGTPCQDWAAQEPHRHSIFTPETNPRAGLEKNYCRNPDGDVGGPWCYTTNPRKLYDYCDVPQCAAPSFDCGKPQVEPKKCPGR
Protocol: as §2
Human plasmin is purchased from Boehringer Mannheim, Indianapolis, Ind.; nt-PA is purchased as single chain activity reference from American Diagnostica, Greenwich, Conn.; modified-t-PA6 (mt-PA6) is prepared at Eli Lilly and Company by procedure known in the art (See, Burck, et al., J. Biol. Chem., 265, 5120-5177 (1990). Plasmin chromogenic substrate H-D-Val-Leu-Lys-p-nitroanilide and tissue plasminogen activator (t-PA) substrate H-D-Ile-Pro-Arg-p-nitroanilide are purchased from Kabi Vitrum, Stockholm, Sweden.

T2 sequence (P00742 235-488 limits assumed): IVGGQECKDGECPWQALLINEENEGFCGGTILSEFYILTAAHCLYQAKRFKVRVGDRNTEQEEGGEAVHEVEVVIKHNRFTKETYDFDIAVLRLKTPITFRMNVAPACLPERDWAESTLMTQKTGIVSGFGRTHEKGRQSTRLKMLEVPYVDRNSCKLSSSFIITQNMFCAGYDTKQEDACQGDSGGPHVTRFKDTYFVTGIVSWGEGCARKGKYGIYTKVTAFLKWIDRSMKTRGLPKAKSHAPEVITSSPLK
T2 sequence (P00742 41-179 partner limits assumed): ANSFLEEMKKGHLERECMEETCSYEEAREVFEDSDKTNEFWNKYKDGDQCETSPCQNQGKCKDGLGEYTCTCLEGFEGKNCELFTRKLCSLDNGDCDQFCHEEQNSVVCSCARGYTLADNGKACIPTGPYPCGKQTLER
T1 sequence (P00750 36-562): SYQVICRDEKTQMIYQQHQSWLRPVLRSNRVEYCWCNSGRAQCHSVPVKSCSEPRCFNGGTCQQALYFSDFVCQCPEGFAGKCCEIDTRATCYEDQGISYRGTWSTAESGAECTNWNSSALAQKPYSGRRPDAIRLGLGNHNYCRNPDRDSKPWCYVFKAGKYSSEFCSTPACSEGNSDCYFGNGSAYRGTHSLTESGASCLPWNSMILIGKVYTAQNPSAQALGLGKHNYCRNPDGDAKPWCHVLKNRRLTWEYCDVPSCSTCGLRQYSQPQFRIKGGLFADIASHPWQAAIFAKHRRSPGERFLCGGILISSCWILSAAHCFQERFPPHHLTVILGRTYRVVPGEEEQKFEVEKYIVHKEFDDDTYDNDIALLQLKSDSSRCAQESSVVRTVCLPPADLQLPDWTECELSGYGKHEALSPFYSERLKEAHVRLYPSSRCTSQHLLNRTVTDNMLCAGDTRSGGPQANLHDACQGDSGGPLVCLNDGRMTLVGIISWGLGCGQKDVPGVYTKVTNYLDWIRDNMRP

| Compound | Human Plasma Anticoagulation 2x Clotting time APTT [1] | Kass × 10^6 (L/mole) t-PA [2] | Human Plasma Anticoagulation 2x Clotting time PT [3] | Human Plasma Anticoagulation 2x Clotting time TT [4] | Kass × 10^6 (L/mole) Human Thrombin [5] | Kass × 10^6 (L/mole) Xa [6] | Kass × 10^6 (L/mole) Trypsin [7] | Kass × 10^6 (L/mole) Plasmin [8] |
| --- | --- | --- | --- | --- | --- | --- | --- | --- |
| CCS(=O)(=O)N[C@H](Cc1ccccc1)C(=O)N1CCC[C@H]1C(=O)NCc1cccc(NC(=N)N)c1 [Example 36, EtSO2 -D-Phe-Pro-m-NHCH2 C6 H4 NHC(NH)NH2.HCl] | > 91,000 ng/mL | < 0.001 × 10^6 L/mole | > 91,000 ng/mL | 7,700 ng/mL | 0.06 × 10^6 L/mole | < 0.001 × 10^6 L/mole | 0.01 × 10^6 L/mole | < 0.001 × 10^6 L/mole |
| Cl.Cl.N=C(N)c1ccc(CNC(=O)C2CC3CCCCC3N2C(=O)C2NCCC3CCCCC32)cc1 [Example 42, D-1-Piq-cis-Ohi-p-NHCH2 C6 H4 C(NH)NH2.2HCl] | 270 ng/mL | 0.01 × 10^6 L/mole | 320 ng/mL | 20 ng/mL | 38. × 10^6 L/mole | 0.07 × 10^6 L/mole | 43. × 10^6 L/mole | 0.12 × 10^6 L/mole |
| Cl.NCc1cccc(CNC(=O)[C@@H]2CCCN2C(=O)[C@H](N)Cc2ccccc2)c1 [Example 11, D-Phe-Pro-m-NHCH2 C6 H4 CH2 NH2.HCl] |  | < 0.001 × 10^6 L/mole |  | 8,800 ng/mL | 0.064 × 10^6 L/mole | 0.000068 × 10^6 L/mole | 0.0036 × 10^6 L/mole | 0.0060 × 10^6 L/mole |
| N=C(N)c1ccc(CNC(=O)[C@@H]2C[C@@H]3CCCC[C@@H]3N2C(=O)[C@@H](Cc2ccccc2)NCC(=O)O)cc1 (relative stereo) [Example 47, HOOCCH2 -D-Phe-cis-Ohi-p-NHCH2 C6 H4 C(NH)NH2.HCl] | 140 ng/mL | 0.01 × 10^6 L/mole | 270 ng/mL | 12. ng/mL | 45 × 10^6 L/mole | 0.04 × 10^6 L/mole | 82. × 10^6 L/mole | 0.18 × 10^6 L/mole |
| CCS(=O)(=O)N[C@H](Cc1ccccc1)C(=O)N1[C@H](C(=O)NCc2ccc(C(=N)N)cc2)C[C@@H]2CCCC[C@@H]21 (relative stereo) [Example 45, EtSO2 -Phe-cis-Ohi-p-NHCH2 C6 H4 C(NH)NH2.HCl] | 200 ng/mL | 0.77 × 10^6 L/mole | 330 ng/mL | 8 ng/mL | 610 × 10^6 L/mole | 1.5 × 10^6 L/mole | 110. × 10^6 L/mole | 1.1 × 10^6 L/mole |
| Cl.NC[C@H]1CC[C@H](CNC(=O)[C@@H]2CCCN2C(=O)[C@H](N)Cc2ccccc2)CC1 (relative stereo) [Example 12, D-Phe-Pro-NHCH2 -trans-4-(aminomethyl)cyclohexane.HCl] |  | 0.000042 × 10^6 L/mole |  | 1,700 ng/mL | 0.44 × 10^6 L/mole | 0.000042 × 10^6 L/mole | 0.0022 × 10^6 L/mole | 0.00087 × 10^6 L/mole |
| CCS(=O)(=O)N[C@H](Cc1ccccc1)C(=O)N1CCC[C@H]1C(=O)NCCc1ccc(C(=N)N)cc1 [Example 26, EtSO2 -D-Phe-Pro-p-NHCH2 CH2 -C6 H4 C(=NH)NH2.HCl] | 870 ng/mL | 0.01 × 10^6 L/mole | 750 ng/mL | 37 ng/mL | 13. × 10^6 L/mole | 0.01 × 10^6 L/mole | 0.21 × 10^6 L/mole | 0.01 × 10^6 L/mole |
| CCOC(=O)N[C@H](Cc1ccccc1)C(=O)N1CCC[C@H]1C(=O)NCCCCN=C(N)N.Cl [Example 3, EtOCO-D-Phe-Pro-Agm.HCl] |  | 0.033 × 10^6 L/mole |  | 590 ng/mL | 2.1 × 10^6 L/mole | 0.0021 × 10^6 L/mole | 0.24 × 10^6 L/mole | 0.0046 × 10^6 L/mole |
| O=C(O)CN[C@H](CC1CCCCC1)C(=O)N1CCC[C@H]1C(=O)NCCCC1CCNCC1 [Example 55, HO2 CCH2 -D-Cha-Pro-4-NHCH2 CH2 CH2 -piperidine.HCl] | > 91,000 ng/mL | < 0.001 × 10^6 L/mole | > 91,000 ng/mL | 55,800 ng/mL | 0.01 × 10^6 L/mole | < 0.001 × 10^6 L/mole | 0.01 × 10^6 L/mole | < 0.001 × 10^6 L/mole |
| CCS(=O)(=O)N[C@H](Cc1ccccc1)C(=O)N1CCC[C@H]1C(=O)NCCCc1cccc(C(=N)N)c1 [Example 31, EtSO2 -D-Phe-Pro-m-NHCH2 CH2 CH2 -C6 H4 C(=NH)NH2.HCl] | 34,500 ng/mL | < 0.001 × 10^6 L/mole | 30,000 ng/mL | 10,800 ng/mL | 0.07 × 10^6 L/mole | 0.14 × 10^6 L/mole | 0.05 × 10^6 L/mole | < 0.001 × 10^6 L/mole |
| N=C(N)NCCCNC(=O)[C@@H]1CCCN1C(=O)[C@H](N)Cc1ccccc1 [Example 7, D-Phe-Pro-NH(CH2)3 NHC(NH)NH2.HCl] |  | 0.0037 × 10^6 L/mole |  | 490 ng/mL | 1.9 × 10^6 L/mole | 0.0041 × 10^6 L/mole | 0.0081 × 10^6 L/mole | 0.00022 × 10^6 L/mole |
| Cl.Nc1ccc(CCNC(=O)[C@@H]2CCCN2C(=O)[C@H](N)Cc2ccccc2)cc1 [Example 14, D-Phe-Pro-P-NHCH2 CH2 C6 H4 NH2.HCl] |  | < 0.001 × 10^6 L/mole |  | 21,000 ng/mL | 0.021 × 10^6 L/mole | 0.00014 × 10^6 L/mole | 0.000056 × 10^6 L/mole | 0.000046 × 10^6 L/mole |
| HOOCCH2 -D-Phe-Pro(4-cis-isoamyl)-p-NHCH2 C6 H4 C(NH)NH2.HCl [Example 50] | 460 ng/mL | 0.04 × 10^6 L/mole | 420 ng/mL | 35 ng/mL | 40 × 10^6 L/mole | 4.3 × 10^6 L/mole |  | 1.8 × 10^6 L/mole |
